system: Agrobacterium (strain ABI); assay: not given; type: cell-based; design: key: “No Growth” indicates there was not an increase in cell density indicating bacteriocidal or bacteriostatic property of the chemical; “Slow Growth” indicates that a slight increase in cell density was noticed and a higher level may be lethal; “Growth” indicates no effect on bacterial growth at the concentration used relative to growth in control medium; settings: control, final concentration 50 mg/L; twenty-four hours
Method: Each of the chemicals listed in Table 26 was resuspended in MS-BMS media and added (final concentration 50 μM) to a 50 ml overnight culture of Agrobacterium (strain ABI). Twenty-four hours after inoculation the effect of the chemicals on the growth of Agrobacterium was recorded. A known bacteriocidal compound, Carbenicillin at a final concentration of 50 mg/L and AgNO3 (20 μM) were used as controls.

| Compound | Effect (on growth of Agrobacterium) |
| --- | --- |
| CC1(C)S[C@@H]2[C@H](NC(=O)C(C(=O)O)c3ccccc3)C(=O)N2[C@H]1C(=O)O (some centres unmarked) [Carbenicillin, reference compound] | No Growth |

same assay, conditions: final concentration 50 μM in MS-BMS media; twenty-four hours

| Compound | Effect (on growth of Agrobacterium) |
| --- | --- |
| Lead Nitrate | Growth |
| [Cl][Cr][Cl] [Chromium (II) Chloride] | Growth |
| [Cl-].[Cl-].[Zn+2] [Zinc Chloride] | Growth |
| [Na+].[Na+].[O]=[W](=[O])([O-])[O-] [Sodium Tungstate] | Growth |
| [Cl][Al]([Cl])[Cl] [Aluminum Chloride] | Growth |
| [Na+].[Na+].[O]=[Mo](=[O])([O-])[O-] [Sodium Molybdate] | Growth |
| [Cl][Ni][Cl] [Nickel Chloride] | Growth |
| Manganese Chloride | Slow Growth |
| [Cl][Cd][Cl] [Cadmium Chloride] | Slow Growth |

system: immature embryos of genotype (H99×Pa 91)A188; assay: Transformation efficiency of corn with different growth inhibiting agents during co-culture; type: cell-based; settings: 50 mg/L in co-culture medium, three days; OD 4.0
Method: b) Biological assay (leaf bleach assay). Leaf samples (a leaf punch) from approximately 2-week-old seedlings were placed in wells of 24-well cell culture clusters (Costar Corporation, Cambridge, Mass.). Each well was filled with 0.5 ml aqueous solution composed of 300 mg/L paromomycin (Sigma) and 100 mg/L Benlate (a fungicide made by Du Pont), 100 mg/IL Benlate alone was used as a control. Three leaf samples from the same leaf of each plant were placed in two wells containing paromomycin plus Benlate and one well containing Benlate alone, respectively. Leaf samples from non-transformed plants were used as negative controls. The samples were vacuum-infiltrated in a dessicator using an in-house vacuum system for 5 min and then the clusters were sealed tightly with parafilm before being placed under light (140 μMol m-2s-1). The results were determined after 60 hours.
Immature embryos of genotype (H99×Pa 91)A188 were isolated as described. […] The Agrobacterium strain was pre-induced as described. The inoculation was performed using a concentration of A660 OD 4.0 for 15 minutes as described. Post inoculation, Agrobacterium suspension was removed and embryos were placed on different semi-solid co-culture media supplemented with various bacteriocidal compounds. All the tissues were incubated for three days in the dark. The transformation protocol followed was as described previously (corn IE transformation) except that the 1st selection with 50 mg/L Paromomycin was replaced with 25 mg/L Paromomycin for 2 weeks and 50 mg/L Paromomycin for 2 additional weeks. Transformation efficiency was calculated based on the number of embryos producing nptII positive plants as determined by a leaf bleach assay as described earlier. Three weeks after the transformation, the quality and growth characteristics of IE-derived callus co-cultured in the presence of different growth inhibiting agents.

| Compound | % Transformation |
| --- | --- |
| CC1(C)S[C@@H]2[C@H](NC(=O)C(C(=O)O)c3ccccc3)C(=O)N2[C@H]1C(=O)O (some centres unmarked) [Carbenicillin, reference compound] | 14.3% |

— patent US20030204875A1, “Novel agrobacterium-mediated plant transformation method” (priority 1999, published 2003)
